Data: PMC12064818, “A general assay platform to study protein pharmacology using ligand-dependent structural dynamics” (Nature Communications, 2025)
Read-outs that look alike come from different tables or passages of the source.

What was measured:
NLuc = biological target: T1, NLuc (Oplophorus gracilirostris, UniProt Q9GV45, A31E/A60N/A81I/F95D/I117V/K70R/L54V/L99Q/M102K/N193R/P142E/Q151K/Q38R/Q45L/V71I/Y165I); type: biochemical; conditions: - ATP
T1 construct: His tag (inferred from IMAC purification); made in house; host or cells: E. coli
Procedure, shortened: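 Luminescence was read 10 min after Nano-Glo reagent addition. Enzyme was 1 nM NLuc in PBS/0.05% IGEPAL buffer, with or without ATP.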

P. pyralis FLuc = P. pyralis FLuc (Photinus pyralis, UniProt P08659); assay: FLuc enzymatic luminescence assay, P. pyralis FLuc; type: biochemical; conditions: FLuc enzymatic assay; for IC50: read-out: IC50 or SDR50 (mM) FLuc E
Procedure, shortened: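 Runs with and without 10 µM ATP: compounds were pre-incubated with FLuc (1–10 nM, PBS pH 7.4) at ambient temperature, light-protected, for 30–60 min. Luminescence was imaged 5 min after adding 10 µM D-luciferin (final). Inhibition was scaled between DMSO neutral and no-enzyme controls.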

FLuc-C-HiBiT = biological target: T2, FLuc-C-HiBiT (Photinus pyralis, UniProt P08659); assay: biochemical; conditions: enzyme activity, 10 uM ATP; read-out: IC50 or SDR50 (mM) / FLuc E
T2 construct: firefly luciferase with C-terminal HiBiT tag, E. coli expressed

[1] = biological target: FLuc-C-NLuc (firefly luciferase) (Photinus pyralis, UniProt P08659, form not given/L550V); assay: SDR assay, FLuc-C-NLuc; conditions: - ATP
[2] = biological target: FLuc-C-HiBiT (firefly luciferase) (Photinus pyralis, UniProt P08659, form not given/L550V); assay: SDR assay, FLuc-C-HiBiT; conditions: SDR max. response, clade S
FLuc-C-HiBiT (firefly luciferase), sequence (P08659 2-550 L550V, form open): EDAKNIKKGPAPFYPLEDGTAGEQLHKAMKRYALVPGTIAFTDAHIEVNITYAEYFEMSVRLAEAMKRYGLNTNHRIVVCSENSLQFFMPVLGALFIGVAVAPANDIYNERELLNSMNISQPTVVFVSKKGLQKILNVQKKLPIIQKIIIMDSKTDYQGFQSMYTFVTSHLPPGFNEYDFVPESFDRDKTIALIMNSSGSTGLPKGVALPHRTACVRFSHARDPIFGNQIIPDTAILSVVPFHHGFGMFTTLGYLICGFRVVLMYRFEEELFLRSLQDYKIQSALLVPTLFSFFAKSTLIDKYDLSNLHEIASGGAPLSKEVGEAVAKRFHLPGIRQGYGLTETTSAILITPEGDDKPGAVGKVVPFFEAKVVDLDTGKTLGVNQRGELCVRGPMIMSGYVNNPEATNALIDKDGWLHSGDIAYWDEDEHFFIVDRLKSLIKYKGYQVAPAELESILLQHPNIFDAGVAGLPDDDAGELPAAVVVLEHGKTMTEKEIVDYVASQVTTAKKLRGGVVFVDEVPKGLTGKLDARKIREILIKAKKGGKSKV

P. pyralis FLuc, sequence (P08659 whole entry): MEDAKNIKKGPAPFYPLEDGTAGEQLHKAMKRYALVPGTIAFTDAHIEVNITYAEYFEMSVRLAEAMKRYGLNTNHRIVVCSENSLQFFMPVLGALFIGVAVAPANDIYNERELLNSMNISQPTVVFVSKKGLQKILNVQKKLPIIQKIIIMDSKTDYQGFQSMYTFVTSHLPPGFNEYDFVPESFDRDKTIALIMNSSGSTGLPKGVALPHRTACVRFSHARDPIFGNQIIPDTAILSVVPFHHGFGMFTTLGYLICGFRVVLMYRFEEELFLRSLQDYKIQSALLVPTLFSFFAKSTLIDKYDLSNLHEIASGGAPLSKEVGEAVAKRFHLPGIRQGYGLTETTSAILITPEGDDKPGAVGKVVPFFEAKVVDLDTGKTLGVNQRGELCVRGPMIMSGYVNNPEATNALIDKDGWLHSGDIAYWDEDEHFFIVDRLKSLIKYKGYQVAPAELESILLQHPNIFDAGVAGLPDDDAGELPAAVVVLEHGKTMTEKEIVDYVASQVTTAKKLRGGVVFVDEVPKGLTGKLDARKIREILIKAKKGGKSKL
T2 sequence (P08659 whole entry, looked up): as the sequence (P08659 whole entry) above
FLuc-C-NLuc (firefly luciferase), sequence (P08659 2-550 L550V, form open): as the sequence (P08659 2-550 L550V, form open) above
T1 sequence (Q9GV45 other isoform, or with tags, fused parts or gaps with the stated changes): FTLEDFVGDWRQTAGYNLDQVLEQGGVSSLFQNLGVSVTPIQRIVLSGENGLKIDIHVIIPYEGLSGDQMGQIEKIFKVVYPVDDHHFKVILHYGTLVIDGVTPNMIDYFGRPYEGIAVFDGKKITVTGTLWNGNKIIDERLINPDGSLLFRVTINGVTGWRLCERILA

Row | Compound | Efficacy (%) NLuc (- ATP) (NLuc) | pIC50 or pSDR50 FLuc E (P. pyralis FLuc) | Efficacy (%) FLuc E (P. pyralis FLuc; Clade S follow-up) | IC50 (P. pyralis FLuc) | IC50 (FLuc-C-HiBiT) | Efficacy (%) FLuc-C-NLuc SDR (-ATP) [1] | % Activity (max response, + ATP) [2] | % Activity (max response, - ATP) [2] | pIC50 or pSDR50 NLuc (- ATP) (NLuc) | IC50 (NLuc; read-out: IC50 or SDR50 (mM) NLuc (- ATP)) | pIC50 or pSDR50 FLuc E (P. pyralis FLuc; Clade S follow-up) | IC50 (P. pyralis FLuc; Clade S follow-up)
1 | CC1CCC(NC(=O)C2CCN(C(=O)c3ncn4c3COC(c3ccccc3)C4)CC2)CC1 (stereo not shown) [NCGC00449768-01] | 0.00% | 5.71 | -93.28% | 0.00197 mM | 0.00248 mM | 0.00% | 387.83% | 0.00% |  |  |  | 
2 | CCCCNC(=O)C1CCN(C(=O)c2ncn3c2COC(c2ccccc2)C3)CC1 (stereo not shown) [NCGC00449772-01] | 0.00% | 5.11 | -88.46% | 0.00784 mM | 0.00624 mM | 0.00% | 357.97% | 0.00% |  |  |  | 
3 | COc1ccccc1CNC(=O)C1CCN(C(=O)c2ncn3c2COC(c2ccccc2)C3)CC1 (stereo not shown) [NCGC00449776-01] | 0.00% | 5.66 | -78.77% | 0.00221 mM | 0.00624 mM | 0.00% | 209.84% | 0.00% |  |  |  | 
4 | CCOc1ccccc1CNC(=O)C1CCN(C(=O)c2ncn3c2COC(c2ccccc2)C3)CC1 (stereo not shown) [NCGC00449779-01] | 0.00% | 5.21 | -109.28% | 0.00623 mM | 0.00313 mM | 0.00% | 223.68% | 0.00% |  |  |  | 
5 | CCOc1cccc(CNC(=O)C2CCN(C(=O)c3ncn4c3COC(c3ccccc3)C4)CC2)c1 (stereo not shown) [NCGC00449780-01] | 0.00% | 4.96 | -78.48% | 0.0111 mM | 0.00785 mM | 0.00% | 197.04% | 0.00% |  |  |  | 
6 | O=C(NCc1ccc2c(c1)OCO2)C1CCN(C(=O)c2ncn3c2COC(c2ccccc2)C3)CC1 (stereo not shown) [NCGC00449781-01] | 0.00% | 5.51 | -80.20% | 0.00312 mM | 0.007 mM | 0.00% | 220.59% | 0.00% |  |  |  | 
7 | CSc1ccc(CNC(=O)C2CCN(C(=O)c3ncn4c3COC(c3ccccc3)C4)CC2)cc1 (stereo not shown) [NCGC00449782-01] | -35.74% | 5.26 | -89.02% | 0.00555 mM | 0.00624 mM | 0.00% | 293.16% | 0.00% | 4.71 | 0.0197 mM |  | 
8 | O=C(NCc1ccccc1F)C1CCN(C(=O)c2ncn3c2COC(c2ccccc2)C3)CC1 (stereo not shown) [NCGC00449783-01] | 14.02% | 5.41 | -77.35% | 0.00393 mM | 0.00351 mM | 0.00% | 339.74% | 0.00% |  |  |  | 
9 | O=C(NCc1ccc(F)cc1Cl)C1CCN(C(=O)c2ncn3c2COC(c2ccccc2)C3)CC1 (stereo not shown) [NCGC00449789-01] | 0.00% | 5.01 | -100.38% | 0.00988 mM | 0.00881 mM | 0.00% | 205.97% | 0.00% |  |  |  | 
10 | O=C(NCc1ccco1)C1CCN(C(=O)c2ncn3c2COC(c2ccccc2)C3)CC1 (stereo not shown) [NCGC00449791-01] | 0.00% | 5.56 | -97.55% | 0.00278 mM | 0.00248 mM | 0.00% | 367.63% | 0.00% |  |  |  | 
11 | O=C(NCc1cccs1)C1CCN(C(=O)c2ncn3c2COC(c2ccccc2)C3)CC1 (stereo not shown) [NCGC00449792-01] | 0.00% | 5.51 | -100.37% | 0.00312 mM | 0.00248 mM | 0.00% | 209.49% | 17.67% |  |  |  | 
12 | CC(NC(=O)C1CCN(C(=O)c2ncn3c2COC(c2ccccc2)C3)CC1)c1ccc(F)cc1 (stereo not shown) [NCGC00449793-01] | 0.00% | 5.16 | -92.83% | 0.00699 mM | 0.00495 mM | 0.00% | 272.56% | 0.00% |  |  |  | 
13 | O=C(NCCc1ccccc1)C1CCN(C(=O)c2ncn3c2COC(c2ccccc2)C3)CC1 (stereo not shown) [NCGC00449794-01] | 0.00% | 5.66 | -92.17% | 0.00221 mM | 0.00248 mM | 0.00% | 379.45% | 0.00% |  |  |  | 
14 | O=C(NCCc1cccs1)C1CCN(C(=O)c2ncn3c2COC(c2ccccc2)C3)CC1 (stereo not shown) [NCGC00449796-01] | 0.00% | 5.26 | -97.05% | 0.00555 mM | 0.00442 mM | 0.00% | 316.37% | 0.00% |  |  |  | 
15 | O=C(NCC1CC1)C1CCN(C(=O)c2ncn3c2COC(c2ccccc2)C3)CC1 (stereo not shown) [NCGC00449799-01] | 0.00% | 5.11 | -97.90% | 0.00784 mM | 0.007 mM | 0.00% | 355.70% | 0.00% |  |  |  | 
16 | O=C(NCc1ccncc1)C1CCN(C(=O)c2ncn3c2COC(c2ccccc2)C3)CC1 (stereo not shown) [NCGC00449800-01] | 0.00% | 6.01 | -91.84% | 0.00099 mM | 0.00176 mM | 0.00% | 375.34% | 0.00% |  |  |  | 
17 | CCc1ccc(NC(=O)C2CCN(C(=O)c3ncn4c3COC(c3ccc(F)cc3)C4)CC2)cc1 (stereo not shown) [NCGC00449925-01] | 0.00% |  | -32.74% |  |  | 0.00% | 47.34% | 0.00% |  |  | 4.96 | 0.0111 mM
18 | CC(C)c1ccc(NC(=O)C2CCN(C(=O)c3ncn4c3COC(c3ccc(F)cc3)C4)CC2)cc1 (stereo not shown) [NCGC00449927-01] | 0.00% |  | -23.88% |  |  | 0.00% | 35.93% | 0.00% |  |  | 4.86 | 0.0139 mM
19 | Cc1ccc(NC(=O)C2CCN(C(=O)c3ncn4c3COC(c3ccc(F)cc3)C4)CC2)c(C)c1 (stereo not shown) [NCGC00449930-01] | 0.00% |  | -45.61% |  |  | 0.00% | 67.53% | 0.00% |  |  | 4.96 | 0.0111 mM
20 | O=C(Nc1ccc(F)cc1)C1CCN(C(=O)c2ncn3c2COC(c2ccc(F)cc2)C3)CC1 (stereo not shown) [NCGC00449939-01] | 0.00% |  | -56.35% |  |  | 0.00% | 72.23% | 0.00% |  |  | 5.01 | 0.00988 mM
21 | O=C(Nc1ccc(F)c(F)c1)C1CCN(C(=O)c2ncn3c2COC(c2ccc(F)cc2)C3)CC1 (stereo not shown) [NCGC00449940-01] | 0.00% |  | -73.07% |  |  | 0.00% | 125.80% | 0.00% |  |  | 4.96 | 0.0111 mM
22 | Cc1ccc(NC(=O)C2CCN(C(=O)c3ncn4c3COC(c3ccc(F)cc3)C4)CC2)c(F)c1 (stereo not shown) [NCGC00449944-01] | 0.00% |  | -69.67% |  |  | 0.00% | 140.99% | 7.55% |  |  | 4.96 | 0.0111 mM
